# Results: patent US9944602B2, “Piperidinone herbicides” (E. I. DU PONT DE NEMOURS AND COMPANY, priority 2014, dated 2018)
# Key:
# Type in all cases: in vivo
# [1] = system: barnyardgrass (Echinochloa crus-galli); experiment: Test A preemergence barnyardgrass; conditions: 0 to 100 scale, 0 no effect, 100 complete control
# Outline: (§1)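 Directed soil spray at planting gives preemergence data; foliar application to one- to two-leaf plants gives postemergence data. Response is visual injury relative to untreated controls about 10 d after treatment, scored 0–100.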
# kochia (Kochia scoparia) [2] = experiment: Test A preemergence kochia; conditions: 0 to 100 scale, 0 no effect, 100 complete control
# Outline: as §1
# [3] = system: ragweed (common ragweed, Ambrosia elatior); experiment: Test A preemergence ragweed; conditions: 0 to 100 scale, 0 no effect, 100 complete control
# Outline: as §1
# [4] = system: ryegrass, Italian (Italian ryegrass, Lolium multiflorum); experiment: Test A preemergence ryegrass, Italian; conditions: 0 to 100 scale, 0 no effect, 100 complete control
# Outline: as §1
# [5] = system: foxtail, giant (giant foxtail, Setaria faberii); experiment: Test A preemergence foxtail, giant; conditions: 0 to 100 scale, 0 no effect, 100 complete control
# Outline: as §1
# [6] = system: pigweed (Amaranthus retroflexus); experiment: Test A preemergence pigweed; conditions: 0 to 100 scale, 0 no effect, 100 complete control
# Outline: as §1
# [7] = system: barnyardgrass (Echinochloa crus-galli); experiment: Test A postemergence barnyardgrass; conditions: 0 to 100 scale, 0 is no effect, 100 is complete control
# Outline: as §1
# kochia (Kochia scoparia) [8] = experiment: Test A postemergence kochia; conditions: 0 to 100 scale, 0 is no effect, 100 is complete control
# Outline: as §1
# [9] = system: ragweed (common ragweed, Ambrosia elatior); experiment: Test A postemergence ragweed; conditions: 0 to 100 scale, 0 is no effect, 100 is complete control
# Outline: as §1
# [10] = system: ryegrass, Italian (Italian ryegrass, Lolium multiflorum); experiment: Test A postemergence ryegrass, Italian; conditions: 0 to 100 scale, 0 is no effect, 100 is complete control
# Outline: as §1
# [11] = system: foxtail, giant (giant foxtail, Setaria faberii); experiment: Test A postemergence foxtail, giant; conditions: 0 to 100 scale, 0 is no effect, 100 is complete control
# Outline: as §1
# [12] = system: pigweed (Amaranthus retroflexus); experiment: Test A postemergence pigweed; conditions: 0 to 100 scale, 0 is no effect, 100 is complete control
# Outline: as §1
# [13] = system: wheat (Triticum aestivum); experiment: Test A postemergence wheat; conditions: 0 to 100 scale, 0 is no effect, 100 is complete control
# Outline: as §1
# corn (Zea mays) = experiment: Test A postemergence corn; conditions: 0 to 100 scale, 0 is no effect, 100 is complete control
# Outline: as §1
# [14] = system: blackgrass (Alopecurus myosuroides); experiment: Test A postemergence blackgrass; conditions: 0 to 100 scale, 0 is no effect, 100 is complete control
# Outline: as §1
# [15] = system: galium (catchweed bedstraw, Galium aparine); experiment: Test A postemergence galium; conditions: 0 to 100 scale, 0 is no effect, 100 is complete control
# Outline: as §1
# rice (Oryza sativa) = experiment: Test B flooded paddy test rice; conditions: Table B, Flood, 250 g ai/ha, scale 0 to 100
# Outline: (§2)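 Visual injury relative to controls was scored after 13 to 15 d in the greenhouse. Treatment was by adding compound straight to flood water 3 cm deep, maintained for the whole test, on plants at the 2-leaf stage.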
# [16] = system: sedge, umbrella (small-flower umbrella sedge, Cyperus difformis); experiment: Test B flooded paddy test sedge, umbrella; conditions: Table B, Flood, 250 g ai/ha, scale 0 to 100
# Outline: as §2
# [17] = system: ducksalad (Heteranthera limosa); experiment: Test B flooded paddy test ducksalad; conditions: Table B, Flood, 250 g ai/ha, scale 0 to 100
# Outline: as §2
# [18] = system: barnyardgrass (Echinochloa crus-galli); experiment: Test B flooded paddy test barnyardgrass; conditions: Table B, Flood, 250 g ai/ha, scale 0 to 100
# Outline: as §2
smiles,measurement,setting,value
O=C1NCC[C@@H](c2cccc(C(F)(F)F)c2)[C@@H]1C(=O)Nc1cccc(Cl)c1F [Compound 24],Barnyardgrass plant response rating,[1]; 125 g ai/ha,50
same,Barnyardgrass plant response rating,[1]; 500 g ai/ha,80
same,Kochia plant response rating,kochia (Kochia scoparia) [2]; 125 g ai/ha,0
same,Kochia plant response rating,kochia (Kochia scoparia) [2]; 500 g ai/ha,0
same,Ragweed plant response rating,[3]; 125 g ai/ha,0
same,Ragweed plant response rating,[3]; 500 g ai/ha,0
same,"Ryegrass, Italian plant response rating",[4]; 125 g ai/ha,0
same,"Ryegrass, Italian plant response rating",[4]; 500 g ai/ha,0
same,"Foxtail, Giant plant response rating",[5]; 125 g ai/ha,70
same,"Foxtail, Giant plant response rating",[5]; 500 g ai/ha,80
same,Pigweed plant response rating,[6]; 125 g ai/ha,0
same,Pigweed plant response rating,[6]; 500 g ai/ha,0
same,"Plant response rating, Barnyardgrass",[7]; 125 g ai/ha,50
same,"Plant response rating, Barnyardgrass",[7]; 500 g ai/ha,80
same,"Plant response rating, Kochia",kochia (Kochia scoparia) [8]; 125 g ai/ha,0
same,"Plant response rating, Kochia",kochia (Kochia scoparia) [8]; 500 g ai/ha,0
same,"Plant response rating, Ragweed",[9]; 125 g ai/ha,0
same,"Plant response rating, Ragweed",[9]; 500 g ai/ha,0
same,"Plant response rating, Ryegrass, Italian",[10]; 125 g ai/ha,0
same,"Plant response rating, Ryegrass, Italian",[10]; 500 g ai/ha,20
same,"Plant response rating, Foxtail, Giant",[11]; 125 g ai/ha,50
same,"Plant response rating, Foxtail, Giant",[11]; 500 g ai/ha,80
same,"Plant response rating, Pigweed",[12]; 125 g ai/ha,0
same,"Plant response rating, Pigweed",[12]; 500 g ai/ha,0
same,"Plant response rating, Wheat",[13]; 125 g ai/ha,20
same,"Plant response rating, Wheat",[13]; 500 g ai/ha,30
same,"Plant response rating, Corn",corn (Zea mays); 125 g ai/ha,20
same,"Plant response rating, Corn",corn (Zea mays); 500 g ai/ha,30
same,"Plant response rating, Blackgrass",[14]; 125 g ai/ha,0
same,"Plant response rating, Blackgrass",[14]; 500 g ai/ha,30
same,"Plant response rating, Galium",[15]; 125 g ai/ha,0
same,"Plant response rating, Galium",[15]; 500 g ai/ha,0
same,Plant response rating,rice (Oryza sativa),0
same,Plant response rating,[16],0
same,Plant response rating,[17],0
same,Plant response rating,[18],0
O=C(Nc1ccccc1C(F)(F)F)C1C(=O)N(Cc2ccccc2)CCC1c1ccc(F)cc1 (stereo not drawn) [Compound 51],Barnyardgrass plant response rating,[1]; 125 g ai/ha,0
same,Barnyardgrass plant response rating,[1]; 500 g ai/ha,0
same,Kochia plant response rating,kochia (Kochia scoparia) [2]; 125 g ai/ha,0
same,Kochia plant response rating,kochia (Kochia scoparia) [2]; 500 g ai/ha,0
same,Ragweed plant response rating,[3]; 125 g ai/ha,0
same,Ragweed plant response rating,[3]; 500 g ai/ha,0
same,"Ryegrass, Italian plant response rating",[4]; 125 g ai/ha,0
same,"Ryegrass, Italian plant response rating",[4]; 500 g ai/ha,0
same,"Foxtail, Giant plant response rating",[5]; 125 g ai/ha,0
same,"Foxtail, Giant plant response rating",[5]; 500 g ai/ha,0
same,Pigweed plant response rating,[6]; 125 g ai/ha,0
same,Pigweed plant response rating,[6]; 500 g ai/ha,0
same,"Plant response rating, Barnyardgrass",[7]; 125 g ai/ha,0
same,"Plant response rating, Barnyardgrass",[7]; 500 g ai/ha,0
same,"Plant response rating, Kochia",kochia (Kochia scoparia) [8]; 125 g ai/ha,0
same,"Plant response rating, Kochia",kochia (Kochia scoparia) [8]; 500 g ai/ha,0
same,"Plant response rating, Ragweed",[9]; 125 g ai/ha,0
same,"Plant response rating, Ragweed",[9]; 500 g ai/ha,0
same,"Plant response rating, Ryegrass, Italian",[10]; 125 g ai/ha,0
same,"Plant response rating, Ryegrass, Italian",[10]; 500 g ai/ha,0
same,"Plant response rating, Foxtail, Giant",[11]; 125 g ai/ha,0
same,"Plant response rating, Foxtail, Giant",[11]; 500 g ai/ha,0
same,"Plant response rating, Pigweed",[12]; 125 g ai/ha,0
same,"Plant response rating, Pigweed",[12]; 500 g ai/ha,0
same,"Plant response rating, Wheat",[13]; 125 g ai/ha,0
same,"Plant response rating, Wheat",[13]; 500 g ai/ha,0
same,"Plant response rating, Corn",corn (Zea mays); 125 g ai/ha,0
same,"Plant response rating, Corn",corn (Zea mays); 500 g ai/ha,0
same,"Plant response rating, Blackgrass",[14]; 125 g ai/ha,0
same,"Plant response rating, Blackgrass",[14]; 500 g ai/ha,0
same,"Plant response rating, Galium",[15]; 125 g ai/ha,0
same,"Plant response rating, Galium",[15]; 500 g ai/ha,0
same,Plant response rating,rice (Oryza sativa),0
same,Plant response rating,[16],0
same,Plant response rating,[17],0
same,Plant response rating,[18],0
